Tested on: High-Fat Diet (HFD) induced obesity model
Experiment: Effectiveness on metabolic syndrome risk factors, high-fat diet-induced obesity model
Details: for Body mass index / Cholesterol (%) / Fat free mass / Fat mass / Food consumption (%) / Glucose (%) / Triglycerides (%) / Weight loss (%): reduction, negative = increase
[1] = ED4: HFD, 0.001 mg/Kg daily 2 weeks
[2] = ED5: Normal diet, 0.001 mg/Kg daily 2 weeks
[3] = ED6: HFD, 0.0175 mg/Kg daily 2 weeks
[4] = ED7: Normal diet, 0.0175 mg/Kg daily 2 weeks
[5] = ED8: HFD, 0.175 mg/Kg daily 2 weeks
[6] = ED9: Normal diet, 0.175 mg/Kg daily 2 weeks
[7] = ED10: HFD, 0.18 mg/Kg daily 2 weeks
[8] = ED11: Normal diet, 0.18 mg/Kg daily 2 weeks
[9] = ED12: HFD, 0.1999 mg/Kg daily 2 weeks
[10] = ED13: Normal diet, 0.1999 mg/Kg daily 2 weeks
[11] = EH4: HFD, 0.20 mg/Kg daily 2 weeks, purity min 95%
[12] = EH5: Normal diet, 0.20 mg/Kg daily 2 weeks, purity min 95%
[13] = EH6: HFD, 0.76 mg/Kg daily 2 weeks, purity min 95%
[14] = EH7: Normal diet, 0.76 mg/Kg daily 2 weeks, purity min 95%
[15] = EH8: HFD, 1.75 mg/Kg daily 2 weeks, purity min 95%
[16] = EH9: Normal diet, 1.75 mg/Kg daily 2 weeks, purity min 95%
[17] = EH10: HFD, 5.50 mg/Kg daily 2 weeks, purity min 95%
[18] = EH11: Normal diet, 5.50 mg/Kg daily 2 weeks, purity min 95%
[19] = EH12: HFD, 25.00 mg/Kg daily 2 weeks, purity min 95%
[20] = EH13: Normal diet, 25.00 mg/Kg daily 2 weeks, purity min 95%
[21] = EH14: HFD, 55.50 mg/Kg daily 2 weeks, purity min 95%
[22] = EH15: Normal diet, 55.50 mg/Kg daily 2 weeks, purity min 95%
[23] = doses 0.001 mg/Kg to about 0.1999 mg/Kg
[24] = doses 0.20 mg/Kg to about 1.75 mg/Kg

Text: Animal studies in high-fat diet-induced obesity model in a total 75 male C57BL/6/CIEABR mice 6 to 7 weeks of age.
The test system is based on the High-Fat Diet (HFD) induced obesity model.
During the quarantine period (10 days), all animals were given rodent food “PicoLab Mouse Diet 5058” food, later, they were given high fat food “Tso's High Fat Diet With Butter Fat” or “PicoLab Mouse Diet 5058” food, according to the assignment of the type of diet and treatment that each animal should consume (See table 3 and table 4).
At the end of the induction period, the administration of the different treatments began. The test product, vehicle, and controls were administered daily for two weeks. Administration was orally using curved stainless steel gastric tubes (18 G×1.5) previously sanitized; administration was performed at 11:00±1 h.
For each treatment, different parameters were quantified to determine their decrease regarding the treatment applied to each group: weight loss (%), feed consumption (%), fat free mass (g), fat mass (g), body mass index, glucose (%), cholesterol (%) and triglycerides (%).

Structure (SMILES): CC(C)(C)c1cc(C=C(C#N)C#N)cc(C(C)(C)C)c1O [tyrphostin AG17, Tyrphostin AG17]
- Body mass index [1]: 1.04
- Cholesterol (%) [1]: −0.03%
- Fat free mass [1]: -2.69 g
- Fat mass [1]: -0.54 g
- Food consumption (%) [1]: −4.21%
- Glucose (%) [1]: 0.75%
- Triglycerides (%) [1]: 4.35%
- Weight loss (%) [1]: 3.17%
- Body mass index [2]: 1.69
- Cholesterol (%) [2]: 0.10%
- Fat free mass [2]: -4.02 g
- Fat mass [2]: 1.28 g
- Food consumption (%) [2]: 1.05%
- Glucose (%) [2]: 1.33%
- Triglycerides (%) [2]: 7.83%
- Weight loss (%) [2]: 4.01%
- Body mass index [3]: 2.03
- Cholesterol (%) [3]: 0.04%
- Fat free mass [3]: 1.22 g
- Fat mass [3]: -0.31 g
- Food consumption (%) [3]: 13.04%
- Glucose (%) [3]: 0.92%
- Triglycerides (%) [3]: 17.39%
- Weight loss (%) [3]: 6.19%
- Body mass index [4]: 2.73
- Cholesterol (%) [4]: 0.44%
- Fat free mass [4]: 3.21 g
- Fat mass [4]: 2.59 g
- Food consumption (%) [4]: 17.39%
- Glucose (%) [4]: 1.24%
- Triglycerides (%) [4]: 20.00%
- Weight loss (%) [4]: 8.40%
- Body mass index [5]: 4.41
- Cholesterol (%) [5]: 0.65%
- Fat free mass [5]: 2.34 g
- Fat mass [5]: 1.28 g
- Food consumption (%) [5]: 25.00%
- Glucose (%) [5]: 1.36%
- Triglycerides (%) [5]: 24.35%
- Weight loss (%) [5]: 17.16%
- Body mass index [6]: 4.30
- Cholesterol (%) [6]: 1.30%
- Fat free mass [6]: 3.98 g
- Fat mass [6]: 3.56 g
- Food consumption (%) [6]: 20.83%
- Glucose (%) [6]: 1.93%
- Triglycerides (%) [6]: 25.22%
- Weight loss (%) [6]: 22.13%
- Body mass index [7]: 3.30
- Cholesterol (%) [7]: 1.10%
- Fat free mass [7]: 3.32 g
- Fat mass [7]: -0.10 g
- Food consumption (%) [7]: 21.74%
- Glucose (%) [7]: 1.49%
- Triglycerides (%) [7]: 32.17%
- Weight loss (%) [7]: 16.56%
- Body mass index [8]: 4.22
- Cholesterol (%) [8]: 1.27%
- Fat free mass [8]: 5.11 g
- Fat mass [8]: 4.92 g
- Food consumption (%) [8]: 22.92%
- Glucose (%) [8]: 2.31%
- Triglycerides (%) [8]: 29.57%
- Weight loss (%) [8]: 20.88%
- Body mass index [9]: 3.35
- Cholesterol (%) [9]: 0.94%
- Fat free mass [9]: 3.41 g
- Fat mass [9]: 0.36 g
- Food consumption (%) [9]: 22.27%
- Glucose (%) [9]: 1.40%
- Triglycerides (%) [9]: 30.54%
- Weight loss (%) [9]: 16.24%
- Body mass index [10]: 3.91
- Cholesterol (%) [10]: 2.44%
- Fat free mass [10]: 5.39 g
- Fat mass [10]: 6.02 g
- Food consumption (%) [10]: 23.11%
- Glucose (%) [10]: 2.11%
- Triglycerides (%) [10]: 30.43%
- Weight loss (%) [10]: 18.21%
- Body mass index [11]: 3.34
- Cholesterol (%) [11]: 1.13%
- Fat free mass [11]: 3.44 g
- Fat mass [11]: 0.39 g
- Food consumption (%) [11]: 18.18%
- Glucose (%) [11]: 1.43%
- Triglycerides (%) [11]: 31.02%
- Weight loss (%) [11]: 20.88%
- Body mass index [12]: 4.05
- Cholesterol (%) [12]: 2.48%
- Fat free mass [12]: 4.92 g
- Fat mass [12]: 5.99 g
- Food consumption (%) [12]: 22.07%
- Glucose (%) [12]: 2.15%
- Triglycerides (%) [12]: 30.75%
- Weight loss (%) [12]: 20.97%
- Body mass index [13]: 2.23
- Cholesterol (%) [13]: 1.49%
- Fat free mass [13]: 2.39 g
- Fat mass [13]: 1.21 g
- Food consumption (%) [13]: 23.81%
- Glucose (%) [13]: 2.05%
- Triglycerides (%) [13]: 33.12%
- Weight loss (%) [13]: 14.92%
- Body mass index [14]: 3.43
- Cholesterol (%) [14]: 3.38%
- Fat free mass [14]: 3.94 g
- Fat mass [14]: 7.52 g
- Food consumption (%) [14]: 30.10%
- Glucose (%) [14]: 2.04%
- Triglycerides (%) [14]: 31.74%
- Weight loss (%) [14]: 17.21%
- Body mass index [15]: 2.50
- Cholesterol (%) [15]: 2.02%
- Fat free mass [15]: -0.12 g
- Fat mass [15]: 1.05 g
- Food consumption (%) [15]: 33.11%
- Glucose (%) [15]: 2.19%
- Triglycerides (%) [15]: 33.45%
- Weight loss (%) [15]: 18.14%
- Body mass index [16]: 3.40
- Cholesterol (%) [16]: 3.43%
- Fat free mass [16]: 1.04 g
- Fat mass [16]: 6.98 g
- Food consumption (%) [16]: 35.18%
- Glucose (%) [16]: 2.43%
- Triglycerides (%) [16]: 32.42%
- Weight loss (%) [16]: 13.88%
- Body mass index [17]: 3.30
- Cholesterol (%) [17]: 2.36%
- Fat free mass [17]: -0.04 g
- Fat mass [17]: 1.28 g
- Food consumption (%) [17]: 38.09%
- Glucose (%) [17]: 3.11%
- Triglycerides (%) [17]: 34.17%
- Weight loss (%) [17]: 7.83%
- Body mass index [18]: 4.22
- Cholesterol (%) [18]: 3.44%
- Fat free mass [18]: 0.42 g
- Fat mass [18]: 5.41 g
- Food consumption (%) [18]: 47.82%
- Glucose (%) [18]: 2.03%
- Triglycerides (%) [18]: 32.56%
- Weight loss (%) [18]: 8.87%
- Body mass index [19]: 3.35
- Cholesterol (%) [19]: 2.49%
- Fat free mass [19]: -0.13 g
- Fat mass [19]: 1.20 g
- Food consumption (%) [19]: 37.27%
- Glucose (%) [19]: 4.20%
- Triglycerides (%) [19]: 37.21%
- Weight loss (%) [19]: 9.27%
- Body mass index [20]: 3.91
- Cholesterol (%) [20]: 3.45%
- Fat free mass [20]: -0.10 g
- Fat mass [20]: 5.58 g
- Food consumption (%) [20]: 40.91%
- Glucose (%) [20]: 2.10%
- Triglycerides (%) [20]: 32.45%
- Weight loss (%) [20]: 7.30%
- Body mass index [21]: 2.54
- Cholesterol (%) [21]: 2.33%
- Fat free mass [21]: -0.12 g
- Fat mass [21]: 1.06 g
- Food consumption (%) [21]: 33.12%
- Glucose (%) [21]: 4.38%
- Triglycerides (%) [21]: 37.84%
- Weight loss (%) [21]: 3.49%
- Body mass index [22]: 2.99
- Cholesterol (%) [22]: 3.58%
- Fat free mass [22]: -0.09 g
- Fat mass [22]: 5.01 g
- Food consumption (%) [22]: 41.37%
- Glucose (%) [22]: 1.91%
- Triglycerides (%) [22]: 33.32%
- Weight loss (%) [22]: 4.44%
- Concentration of triglycerides [23]: considerable decrease
- Levels of HDL and glucose [23]: maintaining the levels of HDL and glucose
- Liver damage or toxic effects [23]: low presence of liver damage or toxic effects
- Weight [23]: considerable decrease
- Concentration of triglycerides [24]: decrease
- Glucose levels [24]: maintained
- HDL levels [24]: reduced
- Weight [24]: decrease
- Effect on the liver and toxic effects (doses 0.20 mg/Kg to about 1.75 mg/Kg, high purity tyrphostin): reduced the effect on the hepatic liver as well as the toxic effects
